According to patent publication US4429126A, “Sodium salt of 4-oxo-10-(2,3-dimethylpentanamido)-4H-pyrimido[1,2-c]quinozoline-3-carbo xylic acid” (Fujisawa Pharmaceutical Co., Ltd., priority 1982, dated 1984):

tested on: PCA (Passive Cutaneous Anaphylaxis) reaction; assay: TEST I: Inhibitory effect on PCA (Passive Cutaneous Anaphylaxis) reaction (64 fold diluted antiserum); format: in vivo, male SD (Sprague-Dawley) strain rats; settings: Rattus norvegicus, intravenous, 10 mg/kg, 5 minutes before antigen challenge, read-out: Inhibitory effect (%), Intravenous administration (10 mg/kg)
Protocol: A solution of egg albumin (2 mg) in B. pertussis-diphtheria-tetanus mixed vaccine (1 ml) was mixed with Freund incomplete adjuvant (1 ml) to give an emulsion. The emulsion was given subcutaneously in a single dose of 1 ml divided equally (0.25 ml) to the four foot pads of male SD (Sprague-Dawley) strain rats aged 8 weeks, each weighing about 300 g.
10 days after the immunization, blood samples were collected from femoral artery of the rats and allowed to stand under ice-cooling for 5 hours. The separated supernatant was centrifuged at 4° C. (10,000 r.p.m.×1 hour). The antisera thus obtained were stored at -80° C. prior to use.
Male SD-strain rats aged 8 weeks, weighing 290 to 330 g, were used for PCA reaction with the homologus reaginic antiserum as prepared above. Each 0.1 ml of 64 fold diluted antiserum were injected intradermally at separate sites on the back of rats clipped free of hair, and 48 hours later, 1 ml of aqueous solution containing each 5 mg of the egg albumin and Evans blue was injected intravenously to evoke PCA reaction. Test compound was given to the animals orally 60 minutes or intravenously 5 minutes before the challenge with antigen. Control group received vehicle. Each dose group consisted of 5 animals. One hour after the challenge with antigen, the animals were sacrificed and then skinned. Dye spots caused with antiserum were investigated for their size on the reversed side of the skin, respectively. The results were expressed by percent inhibition values calculated from averaged values of the longest and shortest diameters for each spot in comparison with those in control group.

Row | Compound | inhibition in vivo at 10 mg/kg [%]
1 | CCOC(=O)C(=CNc1ncnc2ccc(NC(=O)C(C)C)cc12)C(=O)OCC [Example 16, diethyl [(6-isobutyramido-4-quinazolinylamino)methylene]propanedioate] | 100
2 | CCOC(=O)C(=CNc1ncnc2ccccc12)C(=O)OCC [Test compound No. 1, diethyl[(4-quinazolinylamino)methylene]propanedioate] | 100
3 | CCOC(=O)C(=CNc1ncnc2ccc(CC)cc12)C(=O)OCC [Test compound No. 3, diethyl [(6-ethyl-4-quinazolinylamino)methylene]propanedioate] | 100
4 | CCOC(=O)C(=CNc1ncnc2ccc(C)cc12)C(=O)OCC [compound 2] | 100
5 | CCCc1ccc2ncnc(NC=C(C(=O)OCC)C(=O)OCC)c2c1 [compound 4] | 85.9
6 | CCOC(=O)C(=CNc1ncnc2ccc(N(C)C)cc12)C(=O)OCC [compound 11] | 100
7 | CCOC(=O)C(=CNc1ncnc2ccc(N3CCN(C)CC3)cc12)C(=O)OCC [compound 12] | 51.2
8 | CCOC(=O)C(=CNc1ncnc2ccc(NC(C)=O)cc12)C(=O)OCC [compound 13] | 100
9 | CCOC(=O)C(=O)Nc1ccc2ncnc(NC=C(C(=O)OCC)C(=O)OCC)c2c1 [compound 17] | 100
10 | CCOC(=O)C(=CNc1nc(OC)nc2ccccc12)C(=O)OCC [compound 20] | 37.6
11 | CCOC(=O)C(=CNc1nc(=O)n(C)c2ccccc12)C(=O)OCC [compound 22] | 100
12 | CCOC(=O)c1cnc2c3ccccc3ncn2c1=O [compound 23] | 100
13 | CCOC(=O)c1cnc2c3cc(N4CCN(C)CC4)ccc3ncn2c1=O [compound 34] | 100

same assay, conditions: intravenous, 10 mg/kg, 5 minutes before antigen challenge

Row | Compound | Inhibitory effect (%), Intravenous administration (10 mg/kg) [%]
14 | 4-oxo-4H-pyrimido[1,2-c]quinazoline-3-carboxylic acid [Example 27] | 100
15 | 4-oxo-10-(2-ethylbutyramido)-4H-pyrimido[1,2-C]quinazoline-3-carboxylic acid [Test compound No. 64] | 39.8
16 | 4-oxo-10-(2-methylpropionamido)-4H-pyrimido[1,2-C]quinazoline-3-carboxylicacid [Test compound No. 63] | 100
17 | 4-oxo-10-(3-cyclopentylpropionamido)-4H-pyrimido[1,2-C]quinazoline-3-carboxylic acid [Example 53] | 85.0
18 | 4-oxo-10-cyclohexanecarboxamido-4H-pyrimido[1,2-C]quinazoline-3-carboxylicacid [Example 52] | 100
19 | 4H-pyrimido[1,2-c]quinazoline-4-one [Example 26] | 100
20 | Diethyl [(6-acetamido-4-quinazolinylamino)methylene]propanedioate [Test compound No. 13] | 100
21 | diethyl 4,9-dioxo-4H,9H-pyrimido[1,2-c]pyrimido[1,2-a]quinazoline-3,8-dicarboxylate [Example 25] | 100
22 | diethyl [(6-nitro-4-quinazolinylamino)methylene]propanedioate [Test compound No. 8] | 24.4
23 | diethyl [[6-(2-ethylbutyramido)-4-quinazolinylamino]methylene]propanedioate [Example 54] | 48.4
24 | diethyl [{6-(3,3-dimethylbutyramido)-4-quinazolinylamino}methylene]propanedioate [Example 29] | 100
25 | diethyl [{6-methanesulfonamido-4-quinazolinylamino}methylene]propanedioate [Example 31] | 64.9
26 | dimethyl [[6-(2,3-dimethylpentanamido)-4-quinazolinylamino]methylene]propanedioate [Example 57] | 100
27 | dimethyl [[6-cyclohexanecarboxamido-4-quinazolinylamino]methylene]propanedioate [Example 44] | 0
28 | dimethyl [{6-pivalamido-4-quinazolinylamino}methylene]propanedioate [Example 30] | 100
29 | ethyl 4-oxo-4H-pyrimido[1,2-c]quinazoline-3-carboxylate [Test compound No. 23] | 75.4
30 | ethyl 4-oxo-10-(2-ethylbutyramido)-4H-pyrimido[1,2-C]quinazoline-3-carboxylate [Example 55] | 91.0
31 | ethyl 4-oxo-10-(3-cyclopentylpropionamido)-4H-pyrimido[1,2-C]quinazoline-3-carboxylate [Example 56] | 100
32 | methyl 4-oxo-10-(2-ethylbutyramido)-4H-pyrimido[1,2-C]quinazoline-3-carboxylate [Example 46] | 76.3
33 | methyl 4-oxo-10-(2-methylpropionamido)-4H-pyrimido[1,2-C]quinazoline-3-carboxylate [Example 47] | 100
34 | methyl 4-oxo-10-(3,3-dimethylbutyramido)-4H-pyrimido[1,2-c]quinazoline-3-carboxylate [Example 38] | 100
35 | methyl 4-oxo-10-cyclohexanecarboxamido-4H-pyrimido[1,2-C]quinazoline-3-carboxylate [Example 48] | 100
36 | tetraethyl 2,2-[2,4-quinazolinediylbis(iminomethylidyne)]bispropanedioate [Example 8] | 52.7

same assay, conditions: oral, 100 mg/kg, 60 minutes before antigen challenge

Row | Compound | Inhibitory effect (%), Oral administration (100 mg/kg) [%]
37 | 4-oxo-10-pivalamido-4H-pyrimido[1,2-c]quinazoline-3-carboxyic acid [Test compound No. 60] | 75.8
38 | CCOC(=O)C(=CNc1ncnc2ccc(NC(=O)C(C)C)cc12)C(=O)OCC [Example 16, diethyl [(6-isobutyramido-4-quinazolinylamino)methylene]propanedioate] | 51.6
39 | CCOC(=O)C(=CNc1ncnc2ccc(NC(=O)CC)cc12)C(=O)OCC [compound 14] | 77.4
40 | diethyl [(6-amino-4-quinazolinylamino)methylene]propanedioate [Example 15] | 58.1
41 | dimethyl [[6-(2,3-dimethylpentanamido)-4-quinazolinylamino]methylene]propanedioate [Example 57] | 100
42 | dimethyl [[6-cyclohexanecarboxamido-4-quinazolinylamino]methylene]propanedioate [Example 44] | 49.1
43 | ethyl 4-oxo-10-(3,3-dimethylbutyramido)-4H-pyrimido[1,2-c]quinazoline-3-carboxylate [Test compound No. 61] | 74.2
44 | ethyl 4-oxo-10-(3-cyclopentylpropionamido)-4H-pyrimido[1,2-C]quinazoline-3-carboxylate [Example 56] | 24.2
45 | methyl 4-oxo-10-cyclohexanecarboxamido-4H-pyrimido[1,2-C]quinazoline-3-carboxylate [Example 48] | 57.5
46 | methyl 4-oxo-10-pivalamido-4H-pyrimido[1,2-c]quinazoline-3-carboxylate [Test compound No. 59] | 72.7
